Results reported in ChEMBL document CHEMBL4665632, “Design, synthesis and biological evaluation of pyridone-aminal derivatives as MNK1/2 inhibitors” (Bioorg Med Chem, 2019).

Legend:
[1] = target: T1, MAP kinase-interacting serine/threonine-protein kinase 2 (Homo sapiens, UniProt Q9HBH9); experiment: Inhibition of MNK2 (unknown origin) at 100 nM incubated for 60 mins by HTRF assay
Target sequence in this assay (Q9HBH9 whole entry, looked up): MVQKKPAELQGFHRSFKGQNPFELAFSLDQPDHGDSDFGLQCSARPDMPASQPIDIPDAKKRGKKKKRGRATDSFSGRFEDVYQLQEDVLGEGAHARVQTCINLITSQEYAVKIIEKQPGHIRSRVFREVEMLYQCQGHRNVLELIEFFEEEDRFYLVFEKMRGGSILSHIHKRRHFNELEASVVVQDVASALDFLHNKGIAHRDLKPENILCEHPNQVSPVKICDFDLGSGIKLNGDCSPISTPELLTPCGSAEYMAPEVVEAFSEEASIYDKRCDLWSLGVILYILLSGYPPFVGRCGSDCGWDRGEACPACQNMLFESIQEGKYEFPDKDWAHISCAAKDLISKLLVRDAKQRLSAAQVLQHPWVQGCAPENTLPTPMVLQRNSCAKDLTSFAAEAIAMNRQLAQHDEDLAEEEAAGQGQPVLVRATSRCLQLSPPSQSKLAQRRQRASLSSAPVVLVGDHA

[2] = target: T2, MAP kinase-interacting serine/threonine-protein kinase 1 (Homo sapiens, UniProt Q9BUB5); experiment: Inhibition of MNK1 (unknown origin) at 100 nM incubated for 60 mins by HTRF assay
Target sequence in this assay (Q9BUB5 whole entry, looked up, the tested form may be a part): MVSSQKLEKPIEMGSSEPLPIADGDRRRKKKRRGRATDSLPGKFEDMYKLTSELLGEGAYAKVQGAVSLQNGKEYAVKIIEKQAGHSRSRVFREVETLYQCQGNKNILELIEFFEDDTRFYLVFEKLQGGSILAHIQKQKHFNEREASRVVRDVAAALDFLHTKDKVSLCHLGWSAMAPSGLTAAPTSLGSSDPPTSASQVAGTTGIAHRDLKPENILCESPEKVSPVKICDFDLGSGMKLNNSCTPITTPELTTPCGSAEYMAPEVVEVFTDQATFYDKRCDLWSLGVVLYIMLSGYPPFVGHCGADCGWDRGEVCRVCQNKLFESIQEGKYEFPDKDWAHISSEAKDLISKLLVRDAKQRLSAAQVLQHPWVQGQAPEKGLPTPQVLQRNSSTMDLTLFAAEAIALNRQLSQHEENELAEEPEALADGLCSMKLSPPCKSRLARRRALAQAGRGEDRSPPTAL

[3] = target: T1, MAP kinase-interacting serine/threonine-protein kinase 2; experiment: (§1) Inhibition of recombinant human N-terminal GST-tagged MNK2 (1 to 465 residues) expressed in baculovirus expression system using TATKSGSTTKNR as substrate preincubated for 10 mins followed by ATP addition and measured after 40 mins by luminescence based assay
Target sequence in this assay (Q9HBH9 whole entry): as the sequence (Q9HBH9 whole entry, looked up) above

[4] = target: T2, MAP kinase-interacting serine/threonine-protein kinase 1; experiment: (§2) Inhibition of recombinant human N-terminal DYKDDDDK-tagged MNK1(1 to 424 residues) expressed in baculovirus expression system using TATKSGSTTKNR as substrate preincubated for 10 mins followed by ATP addition and measured after 40 mins by luminescence based assay
Target sequence in this assay (Q9BUB5 whole entry, the tested form may be a part): as the sequence (Q9BUB5 whole entry, looked up, the tested form may be a part) above

[5] = Antiproliferative activity against […] cells assessed as reduction in cell viability at 20 uM incubated for 72 hrs by MTT assay relative to control; assay type: functional, Mus musculus
MDA-MB-435 = experiment: Antiproliferative activity against human MDA-MB-435 cells assessed as reduction in cell viability at 20 uM incubated for 72 hrs by MTT assay relative to control; assay type: functional
HCT-116 = experiment: Antiproliferative activity against human HCT-116 cells assessed as reduction in cell viability at 20 uM incubated for 72 hrs by MTT assay relative to control; assay type: functional
A549 = experiment: Antiproliferative activity against human A549 cells assessed as reduction in cell viability incubated at 20 uM for 72 hrs by MTT assay relative to control; assay type: functional
TMD8 = experiment: Antiproliferative activity against human TMD8 cells assessed as reduction in cell viability incubated for 72 hrs by MTT assay; assay type: functional, cell-based; details: TMD8, 72 h
K562 = experiment: Antiproliferative activity against human K562 cells assessed as reduction in cell viability incubated for 72 hrs by MTT assay; assay type: functional, cell-based; details: K562, 72 h
MV4-11 = experiment: Antiproliferative activity against human MV4-11 cells assessed as reduction in cell viability incubated for 72 hrs by MTT assay; assay type: functional, cell-based; details: MV4-11, 72 h
[6] = target: T2, MAP kinase-interacting serine/threonine-protein kinase 1; experiment: as §2, with “Potency index, ratio of IC50 of eFT508 to IC50 of compound for inhibition” for “Inhibition”; details: time 50.0 min
Target sequence in this assay (Q9BUB5 whole entry, looked up, the tested form may be a part): as above

[7] = target: T1, MAP kinase-interacting serine/threonine-protein kinase 2; experiment: as §1, with “Potency index, ratio of IC50 of eFT508 to IC50 of compound for inhibition” for “Inhibition”; details: time 50.0 min
Target sequence in this assay (Q9HBH9 whole entry, looked up): as the sequence (Q9HBH9 whole entry, looked up) above

[8] = Antitumor activity against […] cells xenografted in BALB/c mouse assessed as tumor growth inhibition at 20 mg/kg, ip administered for 14 days relative to control; assay type: functional; details: 336 h, time 14 day, read-out: TGI

| SMILES | inhibition [1] [%] | inhibition [2] [%] | IC50 [3] [nM] | IC50 [4] [nM] | IC50 (K562) [nM] | IC50 (MV4-11) [nM] | Ratio IC50 [6] | Ratio IC50 [7] | inhibition at 20 µM [5] [%] | inhibition at 20 µM (MDA-MB-435) [%] | inhibition at 20 µM (HCT-116) [%] | inhibition at 20 µM (A549) [%] | IC50 (TMD8) [nM] | inhibition in vivo at 20 mg/kg [8] [%] |
| --- | --- | --- | --- | --- | --- | --- | --- | --- | --- | --- | --- | --- | --- | --- |
| Cc1cc(Nc2cc(C)c3n(c2=O)C2(CCCCC2)NC3=O)ccn1 | 45.2 | 26.8 | 398 | 422 |  |  |  |  |  |  |  |  |  |  |
| Cc1cccc(Nc2cc(C)c3n(c2=O)C2(CCCCC2)NC3=O)n1 | 13.4 | 19.8 | > 500 | > 500 |  |  |  |  |  |  |  |  |  |  |
| Cc1cc(Nc2cccnc2)c(=O)n2c1C(=O)NC21CCCCC1 | 13.3 | 20.2 | > 500 | > 500 |  |  |  |  |  |  |  |  |  |  |
| Cc1cc(Nc2cnccn2)c(=O)n2c1C(=O)NC21CCCCC1 | 36.8 | 47.6 | > 500 | 466 |  |  |  |  |  |  |  |  |  |  |
| Cc1cc(Nc2ccccn2)c(=O)n2c1C(=O)NC21CCCCC1 | 16.2 | 19.5 | > 500 | > 500 |  |  |  |  |  |  |  |  |  |  |
| Cc1cccnc1Nc1cc(C)c2n(c1=O)C1(CCCCC1)NC2=O | 23 | 17.8 | > 500 | > 500 |  |  |  |  |  |  |  |  |  |  |
| Cc1cc(Nc2cncc(N)n2)c(=O)n2c1C(=O)NC21CCCCC1 | 33.2 | 25.3 | > 500 | > 500 |  |  |  |  |  |  |  |  |  |  |
| Cc1cc(Nc2cc(N)ccn2)c(=O)n2c1C(=O)NC21CCCCC1 | 30.8 | 43.4 | > 500 | > 500 |  |  |  |  |  |  |  |  |  |  |
| Cc1cc(Nc2cc(N3CCOCC3)ncn2)c(=O)n2c1C(=O)NC21CCCCC1 | 35.5 | 21.4 | 454 | > 500 |  |  |  |  |  |  |  |  |  |  |
| Cc1cc(Nc2cccnn2)c(=O)n2c1C(=O)NC21CCCCC1 | 23.9 | 25.9 | > 500 | > 500 |  |  |  |  |  |  |  |  |  |  |
| Cc1cc(Nc2ncccn2)c(=O)n2c1C(=O)NC21CCCCC1 | 18.9 | 22.4 | > 500 | > 500 |  |  |  |  |  |  |  |  |  |  |
| Cc1cc(Nc2cc(N3CCCCC3)ncn2)c(=O)n2c1C(=O)NC21CCCCC1 | 50.3 | 37.5 | 452 | 476 |  |  |  |  |  |  |  |  |  |  |
| Cc1cc(Nc2nccc(N)n2)c(=O)n2c1C(=O)NC21CCCCC1 | 30.2 | 33.2 | > 500 | > 500 |  |  |  |  |  |  |  |  |  |  |
| Cc1cc(Nc2cn(C)nc2C#N)c(=O)n2c1C(=O)NC21CCCCC1 | 11.9 | 10.5 | > 500 | > 500 |  |  |  |  |  |  |  |  |  |  |
| Cc1cc(Nc2cn(C)nc2C(F)F)c(=O)n2c1C(=O)NC21CCCCC1 | 14.6 | 25.4 | > 500 | > 500 |  |  |  |  |  |  |  |  |  |  |
| Cc1cc(Nc2cc(N)ncn2)c(=O)n2c1C(=O)NC21CCCCC1 [TOMIVOSERTIB] | 98.8 | 87.8 |  |  | 13500 | 14500 |  |  | 43.1 | 49.2 | 52.7 | 40.6 | 2530 | 59 |

Second part, led by results:

| inhibition [1] [%] | inhibition [2] [%] | IC50 [3] [nM] | IC50 [4] [nM] | IC50 (K562) [nM] | IC50 (MV4-11) [nM] | Ratio IC50 [6] | Ratio IC50 [7] | SMILES | inhibition at 20 µM [5] [%] | inhibition at 20 µM (MDA-MB-435) [%] | inhibition at 20 µM (HCT-116) [%] | inhibition at 20 µM (A549) [%] | IC50 (TMD8) [nM] | inhibition in vivo at 20 mg/kg [8] [%] |
| --- | --- | --- | --- | --- | --- | --- | --- | --- | --- | --- | --- | --- | --- | --- |
| 89 | 77.2 | 7.5 | 8.7 | 13000 | 9640 | 2 | 2 | Cc1cc(Nc2cc(N3CCN(CCN(C)C)CC3)ncn2)c(=O)n2c1C(=O)NC21CCCCC1 | 40.5 | 35.2 | 30.5 | 48.4 | 1920 |  |
| 64.3 | 62.7 | 82 | 125 | 17700 | > 20000 |  |  | Cc1cc(Nc2cc(N3CCC(N)CC3)ncn2)c(=O)n2c1C(=O)NC21CCCCC1 | 36.5 | 42 | 46.8 | 50.1 | 9960 |  |
| 70.5 | 72.5 | 48.2 | 52.3 | > 20000 | > 20000 |  |  | Cc1cc(Nc2ccnc(N)c2)c(=O)n2c1C(=O)NC21CCCCC1 | 30.1 | 37.7 | 42.2 | 21.5 | 11200 |  |
| 88.3 | 60.7 | 138 | 240 | > 20000 | > 20000 |  |  | Cc1cc(Nc2ccncc2)c(=O)n2c1C(=O)NC21CCCCC1 | 24 | 48.6 | 12.9 | 23.1 | > 20000 |  |
| 70.3 | 59.8 | 162 | 160 | > 20000 | 13300 |  |  | Cc1cc(Nc2ccnnc2)c(=O)n2c1C(=O)NC21CCCCC1 | 24.3 | 33 | 22.7 | 14 | 8780 |  |
| 97.3 | 82.2 | 8.3 | 10.5 | 14200 | > 20000 |  |  | Cc1cc(Nc2ccncn2)c(=O)n2c1C(=O)NC21CCCCC1 | 48.3 | 52.4 | 40.1 | 40.5 | 6220 |  |
| 87.7 | 66.5 | 18.3 | 20.7 | 8780 | 11000 |  |  | Cc1cc(Nc2cc(N3CCNCC3)ncn2)c(=O)n2c1C(=O)NC21CCCCC1 | 18.8 | 35.2 | 59.9 | 24.6 | 1810 |  |
| 66.8 | 54.4 | 42.1 | 51.2 | 17900 | > 20000 |  |  | Cc1cc(Nc2cc(N3CCN(C)CC3)ncn2)c(=O)n2c1C(=O)NC21CCCCC1 | 38.8 | 44.3 | 65.2 | 39 | 4810 |  |
| 75.8 | 66.4 | 49.8 | 55.2 | > 20000 | 18500 |  |  | Cc1cc(Nc2cc(NC3CCNCC3)ncn2)c(=O)n2c1C(=O)NC21CCCCC1 | 18.5 | 59.2 | 35.2 | 43.9 | 11000 |  |
| 66.3 | 52.7 | 228 | 390 | > 20000 | > 20000 |  |  | Cc1cc(Nc2ccnc(N)n2)c(=O)n2c1C(=O)NC21CCCCC1 | 35 | 25.8 | 30.7 | 22.6 | > 20000 |  |
| 55.4 | 53.2 | 389 | 479 |  |  |  |  | Cc1cc(Nc2cn(C)nc2N)c(=O)n2c1C(=O)NC21CCCCC1 |  |  |  |  |  |  |
| 86.9 | 73.3 | 63.8 | 68.9 | > 20000 | > 20000 |  |  | CC(=O)N1CCN(c2cc(Nc3cc(C)c4n(c3=O)C3(CCCCC3)NC4=O)ncn2)CC1 | 46.7 | 16 | 28.9 | 28.8 | 8330 |  |
